Reference: patent publication US12150995B2, “IRAK degraders and uses thereof” (Kymera Therapeutics, Inc., priority 2020, dated 2024)

Target: T1, IRAK4 (Homo sapiens, UniProt Q9NWZ3)
T1 construct: endogenous in cells; host or cells: OCI-LY10
T1 sequence (Q9NWZ3 1-460): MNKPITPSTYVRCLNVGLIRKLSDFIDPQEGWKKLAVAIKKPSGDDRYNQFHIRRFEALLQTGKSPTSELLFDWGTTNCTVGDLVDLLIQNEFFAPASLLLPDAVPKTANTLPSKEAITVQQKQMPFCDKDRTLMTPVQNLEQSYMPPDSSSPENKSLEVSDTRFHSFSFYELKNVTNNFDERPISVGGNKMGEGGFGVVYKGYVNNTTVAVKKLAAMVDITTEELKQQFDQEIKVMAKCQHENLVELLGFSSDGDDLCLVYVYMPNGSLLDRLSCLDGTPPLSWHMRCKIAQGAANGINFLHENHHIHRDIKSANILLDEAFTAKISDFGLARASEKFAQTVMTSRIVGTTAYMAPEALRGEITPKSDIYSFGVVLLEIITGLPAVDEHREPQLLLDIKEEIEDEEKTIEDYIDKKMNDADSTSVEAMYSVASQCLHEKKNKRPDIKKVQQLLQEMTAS
Experiment: IRAK4 MSD Degradation in OCI-LY10
Format: cell-based
Details: OCI-LY10 cells, Meso Scale Discovery, incubated 4 to 24 hours
How it was run: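 OCI-LY10 cells (300,000/well) exposed to an 8-point 1:3 series from a top concentration of 1 to 10 μM for 4 to 24 h at 37 °C. IRAK4 remaining in RIPA lysates quantified by MSD sandwich immunoassay; DC50 from a three-parameter logistic fit.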

| SMILES | DC50 [nM] |
| --- | --- |
| Cc1ccc2c(c1C1CCN(C[C@H]3CC[C@H](n4cc5cc(NC(=O)c6cccc(C(F)(F)F)n6)c(Cl)cc5n4)CC3)CC1)n(C)c(=O)n2C1CCC(=O)NC1=O (stereo partly shown) [I-73] | 10 to 50 |
| COc1cc2nn([C@H]3CC[C@H](CN(C)C4CCN(c5cccc6c5n(C)c(=O)n6C5CCC(=O)NC5=O)CC4)CC3)cc2cc1NC(=O)c1cncc(C#N)c1 (stereo partly shown) [I-71, 5-cyano-N-[2-[4-[[[1-[1-(2,6-dioxo-3-piperidyl)-3-methyl-2-oxo-benzimidazol-4-yl]-4-piperidyl]-methyl-amino]methyl]cyclohexyl]-6-methoxy-indazol-5-yl]pyridine-3-carboxamide] | < 10 |
| Cn1c(=O)n(C2CCC(=O)NC2=O)c2c(F)ccc(C3CCN(C[C@H]4CC[C@H](n5cc6cc(NC(=O)c7cccc(C(F)(F)F)n7)c(F)cc6n5)CC4)CC3)c21 (stereo partly shown) [I-25] | < 10 |
| Cc1ccc2c(c1C1CCN(C[C@H]3C[C@H](n4cc5cc(NC(=O)c6cccc(C(F)(F)F)n6)c(Cl)cc5n4)C3)CC1)n(C)c(=O)n2C1CCC(=O)NC1=O (stereo partly shown) [I-143] | 50 to 100 |
| COc1cc2nn([C@H]3CC[C@H](CN4CCC(c5cc(Cl)cc6c5n(C)c(=O)n6C5CCC(=O)NC5=O)CC4)CC3)cc2cc1NC(=O)c1cccc(C(F)(F)F)n1 (stereo partly shown) [I-36] | < 10 |
| COc1cc2nn([C@H]3C[C@H](CN4CCC(c5cccc6c5n(C)c(=O)n6C5CCC(=O)NC5=O)CC4)C3)cc2cc1NC(=O)c1cccc(C(F)(F)F)n1 (stereo partly shown) [I-33] | < 10 |
| Cn1c(=O)n(C2CCC(=O)NC2=O)c2cccc(N3CC4CCC(C3)N4C[C@H]3CC[C@H](n4cc5cc(NC(=O)c6cccc(C(F)(F)F)n6)ccc5n4)CC3)c21 (stereo partly shown) [I-164] | < 10 |
| Cn1c(=O)n(C2CCC(=O)NC2=O)c2ccc(F)c(C3CCN(C[C@H]4CC[C@H](n5cc6cc(NC(=O)c7cccc(C(F)(F)F)n7)ncc6n5)CC4)CC3)c21 (stereo partly shown) [I-82] | < 10 |

Second part, the molecule after the results:

| DC50 [nM] | SMILES |
| --- | --- |
| 10 to 50 | Cc1cc2nn([C@H]3CC[C@H](CN4C[C@H]5C[C@@H]4CN5c4cccc5c4n(C)c(=O)n5C4CCC(=O)NC4=O)CC3)cc2cc1NC(=O)c1cccc(C(F)(F)F)n1 (stereo partly shown) [I-389] |
| 10 to 50 | Cn1c(=O)n(C2CCC(=O)NC2=O)c2cccc(C3C[C@H]4CC[C@@H](C3)N4C[C@H]3CC[C@H](n4cc5cc(NC(=O)c6cccc(C(F)(F)F)n6)ccc5n4)CC3)c21 (single isomer, unassigned) [I-250] |
| 10 to 50 | Cc1cccc(C(=O)Nc2cc3sc([C@H]4CC[C@H](CN5CCN(CCNc6cccc7c6C(=O)N(C6CCC(=O)NC6=O)C7=O)[C@H](C)C5)CC4)nc3cc2C(C)(C)O)n1 (stereo partly shown) [I-470] |
| > 200 | Cn1c(=O)n(C2CCC(=O)NC2=O)c2cccc(C3CCN(C[C@H]4CC[C@H](n5cc6cc(NC(=O)c7ncc(Cl)s7)ccc6n5)CC4)CC3)c21 (stereo partly shown) [I-247] |
| < 10 | COc1cc2nn([C@H]3CC[C@H](CN4CCN(c5cccc6c5n(C)c(=O)n6C5CCC(=O)NC5=O)CC4)CC3)cc2cc1NC(=O)c1cncc(C)c1 (stereo partly shown) [I-365] |
| 50 to 100 | COc1cc2nc([C@H]3CC[C@H](C(=O)N4CCN(CCCNc5cccc6c5C(=O)N(C5CCC(=O)NC5=O)C6=O)CC4)CC3)sc2cc1NC(=O)c1cccc(C(F)(F)F)n1 (stereo partly shown) [I-466] |
| < 10 | CC(C)Nc1c(C(=O)N[C@H]2CC[C@H](CN3CCN(c4cccc5c4n(C)c(=O)n5C4CCC(=O)NC4=O)CC3)CC2)cnc2sc(-c3cncs3)cc12 (stereo partly shown) [I-416] |
| 10 to 50 | COc1cc2nn([C@H]3CC[C@H](CN4CCC(c5c(OC)ccc6c5n(C)c(=O)n6C5CCC(=O)NC5=O)CC4)CC3)cc2cc1NC(=O)c1cncc(C#N)c1 (stereo partly shown) [I-195] |
| 10 to 50 | COc1cc2nc([C@H]3CC[C@H](CN4CCC(c5cccc6c(N7CCC(=O)NC7=O)cncc56)CC4)CC3)sc2cc1NC(=O)c1cccc(C(F)(F)F)n1 [I-191] |
| < 10 | COc1cc(NC(=O)c2cccc(C(F)(F)F)n2)cc2cn([C@H]3CC[C@H](CN4CCN(c5cccc6c(N7CCC(=O)NC7=O)cncc56)CC4)CC3)nc12 [I-222] |
| 10 to 50 | CC(C)Nc1cc(-c2ccc3cc(C#N)cnn23)ncc1-c1cn([C@H]2CC[C@H](CN3CCN(c4cccc5c4n(C)c(=O)n5C4CCC(=O)NC4=O)CC3)CC2)nn1 (stereo partly shown) [I-411] |
